Experimental data from US20210386695A1 (priority 2020, published 2021).

How the values were obtained:
in vitro = settings: African green monkey
[1] = tested on: wild type SARS-CoV-2 pseudo-particles; assay type: cell-based
[2] = tested on: wild type SARS-CoV-2 pseudo-particles; assay type: cell-based; remark: listed apart in the source
SARS-CoV-2 M^pro = SARS-CoV-2 M^pro (Severe acute respiratory syndrome coronavirus 2, UniProt P0DTD1); assay: FRET based assay of SARS-CoV-2 Mpro protease activity; assay type: biochemical
[3] = tested on: wild type SARS-CoV-2 pseudo-particles; assay: microbe, parasite or virus in culture; assay type: cell-based; settings: Severe acute respiratory syndrome coronavirus 2, Vero C1008
SARS-CoV-2 PL^pro = SARS-CoV-2 PL^pro (Severe acute respiratory syndrome coronavirus 2, UniProt P0DTD1); assay: SARS-CoV-2 PLpro protease activity, peptide substrate Z-RLRGG-AMC; assay type: biochemical
[4] = read-out: inhibitory effect on the protease activity of SARS-CoV-2 PL^pro

CCN(CC)C(=S)SSC(=S)N(CC)CC [disulfiram]
CC50 (in vitro): 15.7 µM | inhibitory capacity in furin-expressing Vero E6 cells compared with Vero E6 cells [1]: similar | block of viral pseudo-particles infection [2]: dose-dependent manner | inhibition at 1 µM (SARS-CoV-2 M^pro): 16% | inhibition at 5 µM (SARS-CoV-2 M^pro): 80.9% | inhibition at 10 µM (SARS-CoV-2 M^pro): 87.1% | inhibition of protease activity of SARS-CoV-2 M^pro (SARS-CoV-2 M^pro; 30 μM disulfiram): full inhibition | inhibition of protease activity of SARS-CoV-2 M^pro (SARS-CoV-2 M^pro; 60 μM disulfiram): full inhibition | EC50 [3]: 3.1 µM | inhibitory effect on the protease activity of SARS-CoV-2 PL^pro (SARS-CoV-2 PL^pro; 1 μM disulfiram): does not inhibit | inhibition at 5 µM (SARS-CoV-2 PL^pro; [4]): 21.7% | inhibition at 10 µM (SARS-CoV-2 PL^pro; [4]): 36.3% | inhibition at 30 µM (SARS-CoV-2 PL^pro; [4]): 77.9% | inhibition at 60 µM (SARS-CoV-2 PL^pro; [4]): 99.9%
